Measurements published in patent publication EP4806898A1, “HETEROARYL DERIVATIVE COMPOUND AND USE THEREOF” (Voronoi Inc., priority 2023, dated 2025).
Where two headings read alike, the source gives them in different places.

Experiments:
UWB1.289 cells = experiment: Cell proliferation inhibitory activity in BRCA1/2-mutant or HRD-positive cells (Cell Titer-Glo); type: cell-based; conditions: read-out: GI50 UWB1.289 BRCA1 mut
How it was run: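 UWB1.289 cells (1,000/well) in 50% MEBM/50% RPMI1640 exposed to […], final 1.5 nM to 10 µM, for 144 h at 37 °C. Viable cells measured by CellTiter-Glo luminescence; GI50 calculated.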

recombinant USP1 protein = biological target: T1, recombinant USP1 protein (Homo sapiens, UniProt O94782, DEL125-138/DEL229-408/DEL608-737); experiment: Binding affinity to recombinant USP1 protein by differential scanning fluorimetry; conditions: read-out: ΔTm (°C)
T1 sequence (O94782 with tags, fused parts or gaps DEL125-138/DEL229-408/DEL608-737): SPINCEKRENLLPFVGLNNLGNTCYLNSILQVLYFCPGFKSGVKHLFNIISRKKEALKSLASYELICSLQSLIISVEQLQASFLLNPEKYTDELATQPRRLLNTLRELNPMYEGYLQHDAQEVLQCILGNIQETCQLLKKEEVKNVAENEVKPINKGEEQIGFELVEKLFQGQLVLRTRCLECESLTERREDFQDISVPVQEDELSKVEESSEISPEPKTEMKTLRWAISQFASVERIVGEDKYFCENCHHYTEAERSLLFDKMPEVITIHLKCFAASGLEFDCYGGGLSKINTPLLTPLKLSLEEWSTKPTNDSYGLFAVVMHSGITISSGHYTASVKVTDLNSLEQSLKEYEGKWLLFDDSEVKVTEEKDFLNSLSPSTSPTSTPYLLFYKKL
How it was run: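 USP1 (Δ1-66, Δ125-138, Δ229-408, Δ608-737) at 0.03 mg/mL with dye in 50 mM Tris-HCl pH 8.0, 150 mM NaCl, 2% glycerol, 1 mM DTT; compounds at 100 µM final. Tm read on real-time PCR instrument; ΔTm = Tm with compound minus Tm with DMSO.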

[1] = UWB1289, UWB1.289 cells, 144 hours after compound treatment, Cell Titer-Glo, 1.5 nM to 10 µM
[2] = compound 100 µM, 0.03 mg/mL USP1 (Δ1-66, Δ125-138, Δ229-408, Δ608-737), Tm with compound minus Tm with DMSO

| SMILES | GI50 (UWB1.289 cells; [1]) [nM] | ΔTm at 100 µM (recombinant USP1 protein; [2]) [°C] | GI50 (UWB1.289 cells; UWB1289, 144 h) [nM] | ΔTm at 100 µM (recombinant USP1 protein) [°C] |
| --- | --- | --- | --- | --- |
| COc1ncnc(C2CC2)c1-c1ncc2cc(C(=O)NC3(C)CC(F)(F)C3)n(Cc3ccc(-c4nc(C(F)(F)F)cn4C(C)C)cc3)c2n1 [Example 116, 2-(4-cyclopropyl-6-methoxypyrimidin-5-yl)-N-(3,3-difluoro-1-methylcyclobutyl)-7-(4-(1-isopropyl-4-(trifluoromethyl)-1H-imidazol-2-yl)benzyl)-7H-pyrrolo[2,3-d]pyrimidine-6-carboxamide] | < 100 | > 5 | – | – |
| COc1ncnc(C2CC2)c1-c1ncc2cc(C(=O)N3CC[C@H](O)C3)n(Cc3ccc(-c4nc(C(F)(F)F)cn4C(C)C)cc3)c2n1 [Example 117, (S)-(2-(4-cyclopropyl-6-methoxypyrimidin-5-yl)-7-(4-(1-isopropyl-4-(trifluoromethyl)-1H-imidazol-2-yl)benzyl)-7H-pyrrolo[2,3-d]pyrimidin-6-yl) (3-hydroxypyrrolidin-1-yl)methanone] | < 100 | > 5 | – | – |
| COc1ncnc(C2CC2)c1-c1ncc2cc(C(=O)NCC(C)(C)N)n(Cc3ccc(-c4nc(C(F)(F)F)cn4C(C)C)cc3)c2n1 [Example 118, N-(2-amino-2-methylpropyl)-2-(4-cyclopropyl-6-methoxypyrimidin-5-yl)-7-(4-(1-isopropyl-4-(trifluoromethyl)-1H-imidazol-2-yl)benzyl)-7H-pyrrolo[2,3-d]pyrimidine-6-carboxamide] | < 100 | > 5 | – | – |
| CNC(=O)c1cc2cnc(-c3c(OC(C)C)ncnc3C3CC3)nc2n1Cc1ccc(-c2nc(C(F)(F)F)cn2C(C)C)cc1 [Example 119, 2-(4-cyclopropyl-6-isopropoxypyrimidin-5-yl)-7-(4-(1-isopropyl-4-(trifluoromethyl)-1H-imidazol-2-yl)benzyl)-N-methyl-7H-pyrrolo[2,3-d]pyrimidine-6-carboxamide] | < 100 | > 5 | – | – |
| COc1ncnc(C2CC2)c1-c1ncc2cc(C(=O)NC3CCN(C4CC4)CC3)n(Cc3ccc(-c4nc(C(F)(F)F)cn4C(C)C)cc3)c2n1 [Example 121, 2-(4-cyclopropyl-6-methoxypyrimidin-5-yl)-N-(1-cyclopropylpiperidin-4-yl)-7-(4-(1-isopropyl-4-(trifluoromethyl)-1H-imidazol-2-yl)benzyl)-7H-pyrrolo[2,3-d]pyrimidine-6-carboxamide] | < 100 | > 5 | – | – |
| COc1ncnc(C2CC2)c1-c1ncc2cc(C(=O)N[C@H]3C[C@H](OC)C3)n(Cc3ccc(-c4nc(C(F)(F)F)cn4C(C)C)cc3)c2n1 [Example 122, 2-(4-cyclopropyl-6-methoxypyrimidin-5-yl)-7-(4-(1-isopropyl-4-(trifluoromethyl)-1H-imidazol-2-yl)benzyl)-N-((1r,3r)-3-methoxycyclobutyl)-7H-pyrrolo[2,3-d]pyrimidine-6-carboxamide] | 100 to 500 | > 5 | – | – |
| COc1ncnc(C2CC2)c1-c1ncc2cc(C(=O)N3CC[C@@H](OC)C3)n(Cc3ccc(-c4nc(C(F)(F)F)cn4C(C)C)cc3)c2n1 [Example 123, (R) - (2-(4-cyclopropyl-6-methoxypyrimid in-5-yl)-7-(4-(1-isopropyl-4-(trifluoromethyl)-1H-imidazol-2-yl)benzyl)-7H-pyrrolo[2,3-d]pyrimidin-6-yl) (3-methoxypyrrolidin-1-yl)methanone] | – | – | 100 to 500 | > 5 |
| COc1ncnc(C2CC2)c1-c1ncc2cc(C(=O)NC[C@@H]3CCCO3)n(Cc3ccc(-c4nc(C(F)(F)F)cn4C(C)C)cc3)c2n1 [Example 124, (S)-2-(4-cyclopropyl-6-methoxypyrimidin-5-yl)-7-(4-(1-isopropyl-4-(trifluoromethyl)-1H-imidazol-2-yl)benzyl)-N-((tetrahydrofuran-2-yl)methyl)-7H-pyrrolo[2,3-d]pyrimidine-6-carboxamide] | < 100 | > 5 | – | – |
| COc1ncnc(C2CC2)c1-c1ncc2cc(C(=O)NCC3(C)COC3)n(Cc3ccc(-c4nc(C(F)(F)F)cn4C(C)C)cc3)c2n1 [Example 125, 2-(4-cyclopropyl-6-methoxypyrimidin-5-yl)-7-(4-(1-isopropyl-4-(trifluoromethyl)-1H-imidazol-2-yl)benzyl)-N-((3-methyloxetan-3-yl)methyl)-7H-pyrrolo[2,3-d]pyrimidine-6-carboxamide] | < 100 | > 5 | – | – |
| COc1ncnc(C2CC2)c1-c1ncc2cc(C(=O)NC3CCN(CC(C)(C)F)CC3)n(Cc3ccc(-c4nc(C(F)(F)F)cn4C(C)C)cc3)c2n1 [Example 126, 2-(4-cyclopropyl-6-methoxypyrimidin-5-yl)-N-(1-(2-fluoro-2-methylpropyl)piperidin-4-yl)-7-(4-(1-isopropyl-4-(trifluoromethyl)-1H-imidazol-2-yl)benzyl)-7H-pyrrolo[2,3-d]pyrimidine-6-carboxamide] | < 100 | > 5 | – | – |
| COc1ncnc(C2CC2)c1-c1ncc2cc(C(=O)NC[C@H]3CCCO3)n(Cc3ccc(-c4nc(C(F)(F)F)cn4C(C)C)cc3)c2n1 [Example 127, (R) -2-(4-cyclopropyl-6-methoxypyrimidin-5-yl)-7-(4-(1-isopropyl-4-(trifluoromethyl)-1H-imidazol-2-yl)benzyl)-N-((tetrahydrofuran-2-yl)methyl)-7H-pyrrolo[2,3-d]pyrimidine-6-carboxamide] | < 100 | > 5 | – | – |
| COc1ncnc(C2CC2)c1-c1ncc2cc(C(=O)N3CC[C@H](OC)C3)n(Cc3ccc(-c4nc(C(F)(F)F)cn4C(C)C)cc3)c2n1 [Example 128, (S)-(2-(4-cyclopropyl-6-methoxypyrimidin-5-yl)-7-(4-(1-isopropyl-4-(trifluoromethyl)-1H-imidazol-2-yl)benzyl)-7H-pyrrolo[2,3-d]pyrimidin-6-yl) (3-methoxypyrrolidin-1-yl)methanone] | < 100 | > 5 | – | – |
| COc1ncnc(C2CC2)c1-c1ncc2cc(C(=O)N[C@H]3C[C@H]3F)n(Cc3ccc(-c4nc(C(F)(F)F)cn4C(C)C)cc3)c2n1 [Example 129, 2-(4-cyclopropyl-6-methoxypyrimidin-5-yl)-N-((1S,2R)-2-fluorocyclopropyl)-7-(4-(1-isopropyl-4-(trifluoromethyl)-1H-imidazol-2-yl)benzyl)-7H-pyrrolo[2,3-d]pyrimidine-6-carboxamide] | < 100 | > 5 | – | – |
| CNC(=O)c1cc2cnc(-c3c(OC4CC4)ncnc3C3CC3)nc2n1Cc1ccc(-c2nc(C(F)(F)F)cn2C(C)C)cc1 [Example 130, 2-(4-cyclopropoxy-6-cyclopropylpyrimidin-5-yl)-7-(4-(1-isopropyl-4-(trifluoromethyl)-1H-imidazol-2-yl)benzyl)-N-methyl-7H-pyrrolo[2,3-d]pyrimidine-6-carboxamide] | < 100 | > 5 | – | – |
| COc1ncnc(C2CC2)c1-c1ncc2cc(C(=O)N[C@H]3C[C@@H](OC)C3)n(Cc3ccc(-c4nc(C(F)(F)F)cn4C(C)C)cc3)c2n1 [Example 131, 2-(4-cyclopropyl-6-methoxypyrimidin-5-yl)-7-(4-(1-isopropyl-4-(trifluoromethyl)-1H-imidazol-2-yl)benzyl)-N-((1s,3s)-3-methoxycyclobutyl)-7H-pyrrolo[2,3-d]pyrimidine-6-carboxamide] | < 100 | > 5 | – | – |
| CCC1(NC(=O)c2cc3cnc(-c4c(OC)ncnc4C4CC4)nc3n2Cc2ccc(-c3nc(C(F)(F)F)cn3C(C)C)cc2)COC1 [Example 132, 2-(4-cyclopropyl-6-methoxypyrimidin-5-yl)-N-(3-ethyloxetan-3-yl)-7-(4-(1-isopropyl-4-(trifluoromethyl)-1H-imidazol-2-yl)benzyl)-7H-pyrrolo[2,3-d]pyrimidine-6-carboxamide] | < 100 | > 5 | – | – |
| COc1ncnc(C2CC2)c1-c1ncc2cc(C(=O)NC3CCN(CC4(F)CC4)CC3)n(Cc3ccc(-c4nc(C(F)(F)F)cn4C(C)C)cc3)c2n1 [Example 133, 2-(4-cyclopropyl-6-methoxypyrimidin-5-yl)-N-(1-((1-fluorocyclopropyl)methyl)piperidin-4-yl)-7-(4-(1-isopropyl-4-(trifluoromethyl)-1H-imidazol-2-yl)benzyl)-7H-pyrrolo[2,3-d]pyrimidine-6-carboxamide] | < 100 | > 5 | – | – |
| CNC(=O)c1cc2cnc(-c3cccnc3C(C)C)nc2n1Cc1ccc(-c2nc(C(F)(F)F)cn2C(C)C)cc1 [Example 134, 7-(4-(1-isopropyl-4-(trifluoromethyl)-1H-imidazol-2-yl)benzyl)-2-(2-isopropylpyridin-3-yl)-N-methyl-7H-pyrrolo[2,3-d]pyrimidine-6-carboxamide] | < 100 | > 5 | – | – |
